From ChEMBL document CHEMBL4433222, “Treatment of Alzheimer's by PROTAC-Tau Protein Degradation” (ACS Med Chem Lett, 2019)

Test: Half life in CD1 mouse brain at 30 mg/kg, ip by LC-MS/MS analysis
Type: ADME, organism-based

O=C(CCc1ccc2c(c1)[nH]c1ccncc12)NCCOCCOCCNc1cccc2c1C(=O)N(C1CCC(=O)NC1=O)C2=O (stereo unspecified)
half-life: 46 min
